Article PMC8765048 (JCI Insight, 2022)

Key:
[1] = in vitro
[2] = tested on: Salmonella typhimurium; assay: AMES mutagenicity testing (Salmonella typhimurium reverse mutation assay); assay type: cell-based
Protocol: The standard AMES (Salmonella typhimurium reverse mutation assay, ref. [43]) was performed by Cyprotex to evaluate the mutagenic potentials of sangivamycin. Approximately 10 million bacteria were exposed in triplicate to sangivamycin (6 concentrations, 1 mg/mL high test concentration), a negative control (vehicle), and a positive control for 90 minutes in medium containing a low concentration of histidine (sufficient for about 2 doublings). The cultures were then diluted into indicator medium lacking histidine and dispensed into 48 wells of 384-well plates (microplate format). Plates were incubated for 48 hours at 37°C. In the microsuspension assay, cells that undergo a mutagenic reversion grow, resulting in a color change that is scored as positive wells. Wells with bacterial growth were counted and compared with those with vehicle control. A dose-dependent increase in the number of colonies of at least 2-fold over baseline (mean + SD of the vehicle control) indicated a positive response.

[3] = tested on: human cancer patients; conditions: 40 human cancer patients, cited from earlier work
[4] = tested on: SARS-CoV-2 P.2 (Zeta); assay: microbe, parasite or virus in culture; assay type: cell-based
[5] = tested on: SARS-CoV-2 WA1; assay: microbe, parasite or virus in culture; assay type: cell-based
[6] = tested on: SARS-CoV-2; assay: microbe, parasite or virus in culture; assay type: cell-based
[7] = CellTiter-Glo cell viability assay; assay type: cell-based; conditions: human, HEK293T cells
[8] = tested on: SARS-CoV-2 B.1.1.7 (Alpha); assay: microbe, parasite or virus in culture; assay type: cell-based
[9] = tested on: SARS-CoV-2; assay: Combinatorial sangivamycin/remdesivir efficacy testing, Vero E6 cells; assay type: cell-based; conditions: read-out: IC50 (nM), S:R by [Sangivamycin]
[10] = tested on: multiple cell types; assay: CellTiter-Glo cell viability assay, average of 8 cell types; assay type: cell-based; conditions: average ± SEM, n = 8 cell types
[11] = as above; assay type: cell-based; conditions: human (7 cell types) and grivet (Vero E6), average ± SEM, n = 8 cell types
[12] = CellTiter-Glo cell viability assay; assay type: cell-based; conditions: human, Huh-7 cells; Huh-7, 72 h
[13] = tested on: HEK293T (human embryonic kidney); assay: CellTox Green Cytotoxicity Assay; conditions: ratio > 1 cytostatic, ≤ 1 cytotoxic
[14] = tested on: SARS-CoV-2 B.1.351 (Beta); assay: microbe, parasite or virus in culture; assay type: cell-based
[15] = CellTiter-Glo cell viability assay; assay type: cell-based; conditions: Primary human hepatocytes
[16] = tested on: SARS-CoV-2; assay: Combinatorial sangivamycin/remdesivir efficacy testing, Caco-2 cells; assay type: cell-based; conditions: Severe acute respiratory syndrome coronavirus 2, Caco-2; read-out: IC50 (nM), S:R by [Sangivamycin]
[17] = Turbidimetric aqueous solubility screening; assay type: physicochemical; conditions: PBS, pH 7.4, PBS pH 7.4, 2 hours at 37°C, high test concentration 500 μM
Protocol: Aqueous solubility of sangivamycin was measured using a high-throughput turbidimetric assay performed by Cyprotex. Initially, sangivamycin stock DMSO solution was diluted in DMSO to produce a range of concentrations. These dilutions were added to PBS at pH 7.4 (high test concentration 500 μM) and incubated for 2 hours at 37°C. At the end of the incubation period, the absorbance at 620 nm was measured for each concentration for 2 replicates to determine turbidity from precipitate formation.

[18] = tested on: SARS-CoV-2 B.1.427 (Epsilon); assay: microbe, parasite or virus in culture; assay type: cell-based
[19] = tested on: SARS-CoV-2 B.1.617.2 (Delta); assay: microbe, parasite or virus in culture; assay type: cell-based
[20] = tested on: HepG2 (human hepatocarcinoma); assay: CellTox Green Cytotoxicity Assay; conditions: ratio > 1 cytostatic, ≤ 1 cytotoxic
[21] = mice, cited from earlier work
[22] = CellTiter-Glo cell viability assay; assay type: cell-based; conditions: human, HepG2 cells; HepG2, 72 h
[23] = tested on: Calu-3 (human lung adenocarcinoma); assay: CellTox Green Cytotoxicity Assay; conditions: ratio > 1 cytostatic, ≤ 1 cytotoxic
[24] = tested on: SARS-CoV-2 B.1.351 (Beta); assay: microbe, parasite or virus in culture; assay type: cell-based; remark: listed apart in the source
[25] = Severe acute respiratory syndrome coronavirus 2, Calu-3, 24 h
[26] = Severe acute respiratory syndrome coronavirus 2, Calu-3, 72 h
[27] = Severe acute respiratory syndrome coronavirus 2, Calu-3, 48 h
[28] = Severe acute respiratory syndrome coronavirus 2, Vero C1008, 18 h

With `NC(=O)c1cn([C@@H]2O[C@H](CO)[C@@H](O)[C@H]2O)c2ncnc(N)c12` [Sangivamycin, sangivamycin] the CC50 [1] was over 5000 nM, the AMES genotoxicity test ([2]; 1 mg/mL [3.2 mM] high test concentration) was over 1 mg/mL and the bacterial mutagenicity ([2]; up to 3.2 mM) was “no evidence of enhanced bacterial mutagenicity”. For the same compound, the MTD ([3]; 0.1–2.83 mg/kg total dose) was “not reached”, the tolerability ([3]; daily, thrice weekly, or weekly dosing, 0.1–2.83 mg/kg total dose) was “well tolerated” and the “activity against the disease (cancer)” value [3] was “inactive”. For the same compound, the “SI (selectivity index, CC50/IC50)” value ([4]; P.2 (Zeta), Calu-3 cells) was over 15.2, the IC50 [4, 25] was 39.6 nM and the IC90 [4, 25] was 122 nM. For the same compound, the IC50 [5, 26] was 61 ± 8 nM, the IC90 [5, 26] was 190 ± 23 nM and the “SI (selectivity index, CC50/IC50)” value ([5]; WA1, Calu-3 cells) was 5.3. The “SI calculated with the average CellTiter-Glo values” [6] was 13, the “average in vitro IC50 from all cell types tested, as dose” value ([6]; 2-compartment model for a 70 kg adult, water volumes 42 L) was 0.01 mg/kg and the IC50 ([6]; Severe acute respiratory syndrome coronavirus 2, n = 22, read-out: average IC50 for all viral testing in all cell lines and MOIs) was 47 ± 5 nM. The “SI calculated with the average CellTox Green” value ([6]; average CC50 / average IC50) was over 106, the CC50 at 72 h [7] was 885 nM and the “SI (selectivity index, CC50/IC50)” value ([8]; B.1.1.7 (Alpha), Calu-3 cells) was over 10.1. The IC50 [8, 25] was 59.1 nM, the IC90 [8, 25] was 522 nM and the IC50 ([9]; Severe acute respiratory syndrome coronavirus 2, Vero C1008) was 34 nM. The IC50 ([9]; listed as S:R 1:0) was 34.3 nM, the CC50 [10] was 607 ± 182 nM and the CC50 [11] was 617 ± 181 nM. For the same compound, the CC50 at 72 h [12] was 487 nM, the “Ratio CellTox Green/CellTiter-Glo” value [13] was over 5.65 and the “SI (selectivity index, CC50/IC50)” value ([14]; B.1.351 (Beta), Calu-3 cells) was over 10.1. For the same compound, the IC50 [14, 27] was 59.4 nM, the IC90 [14, 27] was 135 nM and the CC50 at 72 h [15] was 439 nM. The IC50 [16] was 39 nM, the solubility at 2 h [17] was at least 500 µM and the “SI (selectivity index, CC50/IC50)” value ([18]; B.1.427 (Epsilon), Calu-3 cells) was over 7.3. The IC50 [18, 25] was 82.2 nM, the IC90 [18, 25] was 341 nM and the “SI (selectivity index, CC50/IC50)” value ([19]; B.1.617.2 (Delta), Calu-3 cells) was over 7.6. The IC50 [19, 25] was 79 nM, the IC90 [19, 25] was 290 nM and the “Ratio CellTox Green/CellTiter-Glo” value [20] was over 2.82. For the same compound, the half-life in blood ([21]; 3H-labeled sangivamycin, i.p. 8 mg/kg) was 50 h, the “drug-derived radioactivity accounted for in the urine” value ([21]; over a period of 12 days) was 40% and the CC50 at 72 h [22] was 1770 nM. The “Ratio CellTox Green/CellTiter-Glo” value [23] was over 15.5, the “SI (selectivity index, CC50/IC50)” value ([24]; B.1.351 (Beta), Vero E6 cells) was over 10.5 and the IC50 [24, 28] was 57.4 nM. The IC90 [24, 28] was 224 nM.
